According to US20250177412A1, “SMALL-MOLECULE INHIBITORS TARGETING THE BOB1/OCT1 INTERFACE” (NANTES UNIVERSITE, priority 2022, published 2025):

What was measured:
naïve B cells = assay: In vitro plasmablast differentiation with naive B cells; type: cell-based, human; details: data not shown
From the text: Blood samples were obtained from healthy volunteers provided by Sanquin Blood Supply Foundation (Amsterdam, the Netherlands) or from Etablissement Français du Sang (Nantes, France) after written consent was obtained. Peripheral blood mononuclear cells (PBMCs) were isolated through Ficoll-Paque gradient centrifugation on Lymphoprep (Nycomed). Total B cells were isolated from freshly purified PBMCs by negative selection (B cell Isolation Kit II; Miltenyi Biotech, 130-091-151) on magnetic columns using autoMACS Pro Separator according to the manufacturer's instructions. […] Ultimately, purity of the MACS-isolated CD19^+ B cells, CD19^+CD27^+IgD^− memory B cells and CD19^+CD27^−IgD^+ […] was assessed by flow cytometry; purity was >90% for B cells, >65% for memory B cells, and >85% for naive B cells. […]
B cells were stimulated to differentiate into plasmablasts using a two-phase cell culture protocol as previously described. […] At days 0, 4 and 7, B cells were stained with viability marker LIVE/DEAD Fixable Aqua Dead Cell Stain (Thermofisher) to identify dead cells, followed by extracellular staining with anti-human mAbs: anti-CD20 FITC, anti-IgD BUV395, anti-CD27 BUV737, anti-CD38 BV605 (all from BD Biosciences) and analyzed by flow cytometry (FACSCelesta™, BD Biosciences). […]

[1] = biological target: T1, POU domain of OCT1 (POU1) (Homo sapiens, UniProt P14859); assay: Thermal shift assay (TSA); type: binding; details: compound 10 μM, POU1 5 μM
T1 construct: 6xHis (pET28 N-terminal histidine tag) (N); made in house; host or cells: E. coli BL21
T1 sequence (P14859 280-438): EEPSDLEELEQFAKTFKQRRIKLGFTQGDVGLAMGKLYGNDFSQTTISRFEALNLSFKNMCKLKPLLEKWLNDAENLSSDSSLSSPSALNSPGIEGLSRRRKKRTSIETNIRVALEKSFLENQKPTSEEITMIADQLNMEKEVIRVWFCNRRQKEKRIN
Experimental: Following primers were used for the amplification:
POU1 and BOB1 proteins (each at a final concentration 5 μM), compound 005 (final concentration 10 μM), and 1× ProteOrange fluorescent dye (Lumiprobe, Russia) were mixed in triplicates in 100 μL of 0.1 M phosphate buffered saline pH 7.4 per and pipetted into 96-well 0.2-mL thin-wall PCR plates (Roche Life Science, Switzerland) sealed with optical-grade sealing film. Fluorescence data were acquired on a LightCycler® 96 Real Time PCR Instrument (Roche Life Science, Switzerland) with an excitation range of 470-533 nm. The fluorescence emission signal at […] was measured for data analysis. The temperature was held for 30 sec per degree from 37 to 98° C. (ramp rate of […]). The derivatives of the fluorescence signal as function of the temperature were used for further analysis.

[2] = biological target: T2, ternary BOB1/POU1/PORE complex (Homo sapiens, UniProt P14859); assay: Electrophoretic mobility shift assay (EMSA); type: binding; details: 100 μM
T2 construct: made in house; host or cells: E. coli BL21
T2 sequence (P14859 280-438): T1 sequence (P14859 280-438)

Compound: Cc1ccc(NC(=O)C2CN(c3nc(NCCCc4ccc(F)cc4)nc(NCCC(=O)O)n3)c3ccccc3O2)cc1Cl (stereo not drawn) [compound 005, 3-((4-(2-((3-chloro-4-methylphenyl)carbamoyl)-2,3-dihydro-4H-benzo[b][1,4]oxazin-4-yl)-6-((3-(4-fluorophenyl)propyl)amino)-1,3,5-triazin-2-yl)amino)propanoic acid]
- effect on proliferation, CD38 and CD20 expression and plasmablast differentiation (naïve B cells): comparable dose-dependent effect
- increase of POU1 melting temperature [1]: about 4 °C
- effect on ternary BOB1/POU1/PORE complex [2]: has not affected
